# Reference: ChEMBL document CHEMBL5608163, “Structure modification of anoplin for fighting resistant bacteria” (Eur J Med Chem, 2024)
# Bridge positions count the residues as written; N and C are the ends. Square brackets hold non-standard residues; d marks the D form. Peptide text beside a SMILES is read from it. I, II: the chains in the order shown. * marks the point of attachment. 2Nal = N[C@@H](Cc1ccc2ccccc2c1)C(=O)O; hLeu = CC(C)CC[C@H](N)C(=O)O; Decanoyl = CCCCCCCCCC(=O)*; Nle = CCCC[C@H](N)C(=O)O; Orn = NCCC[C@H](N)C(=O)O; Dab = NCC[C@H](N)C(=O)O; Nva = CCC[C@H](N)C(=O)O; Butyryl = CCCC(=O)*
# Experiments:
# Staphylococcus aureus = test: Antibacterial activity against Staphylococcus aureus ATCC 25923 assessed as reduction in bacterial cell growth incubated for 16 to 24 hrs by CLSI-protocol based Mueller-Hinton Broth micro-dilution method; format: functional; conditions: time 16-24 hrs
# Bacillus subtilis = test: Antibacterial activity against Bacillus subtilis ATCC 23857 assessed as reduction in bacterial cell growth incubated for 16 to 24 hrs by CLSI-protocol based Mueller-Hinton Broth micro-dilution method; format: functional; conditions: time 16-24 hrs
# Escherichia coli [1] = test: Antibacterial activity against Escherichia coli ATCC 25922 assessed as reduction in bacterial cell growth incubated for 16 to 24 hrs by CLSI-protocol based Mueller-Hinton Broth micro-dilution method; format: functional; conditions: time 16-24 hrs
# Pseudomonas aeruginosa = test: Antibacterial activity against Pseudomonas aeruginosa ATCC 27853 assessed as reduction in bacterial cell growth incubated for 16 to 24 hrs by CLSI-protocol based Mueller-Hinton Broth micro-dilution method; format: functional; conditions: time 16-24 hrs
# Klebsiella pneumoniae = test: Antibacterial activity against Klebsiella pneumoniae ATCC 700603 assessed as reduction in bacterial cell growth incubated for 16 to 24 hrs by CLSI-protocol based Mueller-Hinton Broth micro-dilution method; format: functional; conditions: time 16-24 hrs
# Escherichia coli [2] = test: Antimicrobial activity against Escherichia coli ATCC 25922 assessed as reduction in microbial growth measured after 24 hrs by CLSI based broth microdilution method; format: functional
# Erythrocyte = test: Hemolytic activity in human erythrocytes incubated for 1 hr by ELISA reader analysis; format: toxicity, cell-based
MIC (Escherichia coli [2]),Structure (SMILES),MIC (Staphylococcus aureus),MIC (Bacillus subtilis),MIC (Escherichia coli [1]),MIC (Pseudomonas aeruginosa),MIC (Klebsiella pneumoniae),HC10 (Erythrocyte)
–,"CCCCCCCCCC(=O)NCC(=O)N[C@@H](CC(C)C)C(=O)N[C@@H](CC(C)C)C(=O)N[C@@H](CCCCN)C(=O)N[C@@H](CCCNC(=N)N)C(=O)N[C@H](C(=O)N[C@@H](CCCCN)C(=O)N[C@H](C(=O)N[C@@H](CC(C)C)C(=O)N[C@@H](CC(C)C)C(=O)NCCCC[C@H](NC(=O)[C@H](CCCCNC(=O)[C@H](CC(C)C)NC(=O)[C@H](CC(C)C)NC(=O)[C@@H](NC(=O)[C@H](CCCCN)NC(=O)[C@@H](NC(=O)[C@H](CCCNC(=N)N)NC(=O)[C@H](CCCCN)NC(=O)[C@H](CC(C)C)NC(=O)[C@H](CC(C)C)NC(=O)CNC(=O)CCCCCCCCC)[C@@H](C)CC)[C@@H](C)O)NC(=O)[C@H](CC(C)C)NC(=O)[C@H](CC(C)C)NC(=O)[C@@H](NC(=O)[C@H](CCCCN)NC(=O)[C@@H](NC(=O)[C@H](CCCNC(=N)N)NC(=O)[C@H](CCCCN)NC(=O)[C@H](CC(C)C)NC(=O)[C@H](CC(C)C)NC(=O)CNC(=O)CCCCCCCCC)[C@@H](C)CC)[C@@H](C)O)C(N)=O)[C@@H](C)O)[C@@H](C)CC (I: Decanoyl-GLLKRIKTLLKK-NH2 / II: Decanoyl-GLLKRIKTLL / III: Decanoyl-GLLKRIKTLL; amide I:11-III:C, I:12-II:C)",128 µM,56 µM,128 µM,32 µM,32 µM,–
–,"CC[C@H](C)[C@H](NC(=O)[C@H](CCCNC(=N)N)NC(=O)[C@H](CCCCN)NC(=O)[C@H](CC(C)C)NC(=O)[C@H](CC(C)C)NC(=O)CN)C(=O)N[C@@H](CCCCN)C(=O)N[C@H](C(=O)N[C@@H](CC(C)C)C(=O)N[C@@H](CC(C)C)C(=O)NCCCC[C@H](NC(=O)[C@H](CCCCNC(=O)[C@H](CC(C)C)NC(=O)[C@H](CC(C)C)NC(=O)[C@@H](NC(=O)[C@H](CCCCN)NC(=O)[C@@H](NC(=O)[C@H](CCCNC(=N)N)NC(=O)[C@H](CCCCN)NC(=O)[C@H](CC(C)C)NC(=O)[C@H](CC(C)C)NC(=O)CN)[C@@H](C)CC)[C@@H](C)O)NC(=O)[C@H](CC(C)C)NC(=O)[C@H](CC(C)C)NC(=O)[C@@H](NC(=O)[C@H](CCCCN)NC(=O)[C@@H](NC(=O)[C@H](CCCNC(=N)N)NC(=O)[C@H](CCCCN)NC(=O)[C@H](CC(C)C)NC(=O)[C@H](CC(C)C)NC(=O)CN)[C@@H](C)CC)[C@@H](C)O)C(N)=O)[C@@H](C)O (I: H-GLLKRIKTLLKK-NH2 / II: H-GLLKRIKTLL / III: H-GLLKRIKTLL; amide I:11-III:C, I:12-II:C)",4 µM,4 µM,8 µM,4 µM,4 µM,–
> 200 µM,CCC[C@H](NC(=O)[C@H](CCC)NC(=O)[C@@H](NC(=O)[C@H](CCCCN)NC(=O)[C@H](Cc1ccc2ccccc2c1)NC(=O)[C@H](CCCNC(=N)N)NC(=O)[C@H](CCCCN)NC(=O)[C@H](CCC)NC(=O)[C@H](CCC)NC(=O)CN)[C@@H](C)O)C(N)=O (H-G[Nva][Nva]KR[2Nal]KT[Nva][Nva]-NH2),–,–,–,–,–,> 500 µM
> 200 µM,CC[C@H](C)[C@H](NC(=O)[C@H](CCCNC(=N)N)NC(=O)[C@H](CCCCN)NC(=O)[C@H](CC(C)C)NC(=O)[C@H](COC)NC(=O)CN)C(=O)N[C@@H](CCCCN)C(=O)N[C@H](C(=O)N[C@@H](CC(C)C)C(=O)N[C@@H](CC(C)C)C(N)=O)[C@@H](C)O (H-GS(Me)LKRIKTLL-NH2),–,–,–,–,–,> 500 µM
–,"CCCC(=O)NCC(=O)N[C@@H](CC(C)C)C(=O)N[C@@H](CC(C)C)C(=O)N[C@@H](CCCCN)C(=O)N[C@@H](CCCNC(=N)N)C(=O)N[C@H](C(=O)N[C@@H](CCCCN)C(=O)N[C@H](C(=O)N[C@@H](CC(C)C)C(=O)N[C@@H](CC(C)C)C(=O)NCCCC[C@H](NC(=O)[C@H](CCCCNC(=O)[C@H](CC(C)C)NC(=O)[C@H](CC(C)C)NC(=O)[C@@H](NC(=O)[C@H](CCCCN)NC(=O)[C@@H](NC(=O)[C@H](CCCNC(=N)N)NC(=O)[C@H](CCCCN)NC(=O)[C@H](CC(C)C)NC(=O)[C@H](CC(C)C)NC(=O)CNC(=O)CCC)[C@@H](C)CC)[C@@H](C)O)NC(=O)[C@H](CC(C)C)NC(=O)[C@H](CC(C)C)NC(=O)[C@@H](NC(=O)[C@H](CCCCN)NC(=O)[C@@H](NC(=O)[C@H](CCCNC(=N)N)NC(=O)[C@H](CCCCN)NC(=O)[C@H](CC(C)C)NC(=O)[C@H](CC(C)C)NC(=O)CNC(=O)CCC)[C@@H](C)CC)[C@@H](C)O)C(N)=O)[C@@H](C)O)[C@@H](C)CC (I: Butyryl-GLLKRIKTLLKK-NH2 / II: Butyryl-GLLKRIKTLL / III: Butyryl-GLLKRIKTLL; amide I:11-III:C, I:12-II:C)",4 µM,4 µM,4 µM,2 µM,4 µM,–
> 200 µM,CC[C@H](C)[C@H](NC(=O)[C@H](CCCNC(=N)N)NC(=O)[C@H](CCCCN)NC(=O)[C@H](CC(C)C)NC(=O)[C@H](CCSC)NC(=O)CN)C(=O)N[C@@H](CCCCN)C(=O)N[C@H](C(=O)N[C@@H](CC(C)C)C(=O)N[C@@H](CCSC)C(N)=O)[C@@H](C)O (H-GMLKRIKTLM-NH2),–,–,–,–,–,500 µM
75 µM,CC[C@H](C)[C@H](NC(=O)[C@H](CCCNC(=N)N)NC(=O)[C@H](CCN)NC(=O)[C@H](CC(C)C)NC(=O)[C@H](CC(C)C)NC(=O)CN)C(=O)N[C@@H](CCCCN)C(=O)N[C@H](C(=O)N[C@@H](CC(C)C)C(=O)N[C@@H](CC(C)C)C(N)=O)[C@@H](C)O (H-GLL[Dab]RIKTLL-NH2),–,–,–,–,–,> 500 µM
12.5 µM,CC[C@H](C)[C@H](NC(=O)[C@H](CCCNC(=N)N)NC(=O)[C@H](CCCCN)NC(=O)[C@H](CCC(C)C)NC(=O)[C@H](CCC(C)C)NC(=O)CN)C(=O)N[C@@H](CCCCN)C(=O)N[C@H](C(=O)N[C@@H](CCC(C)C)C(=O)N[C@@H](CCC(C)C)C(N)=O)[C@@H](C)O (H-G[hLeu][hLeu]KRIKT[hLeu][hLeu]-NH2),–,–,–,–,–,125 µM
> 200 µM,CC[C@H](C)[C@H](NC(=O)[C@H](CCCNC(=N)N)NC(=O)[C@H](CCCCN)NC(=O)[C@@H](NC(=O)[C@@H](NC(=O)CN)C(C)C)C(C)C)C(=O)N[C@@H](CCCCN)C(=O)N[C@H](C(=O)N[C@H](C(=O)N[C@H](C(N)=O)C(C)C)C(C)C)[C@@H](C)O (H-GVVKRIKTVV-NH2),–,–,–,–,–,> 500 µM
> 200 µM,CC[C@H](C)[C@H](NC(=O)[C@H](CCCNC(=N)N)NC(=O)[C@H](CCCCN)NC(=O)[C@H](CCSC)NC(=O)[C@H](CCSC)NC(=O)CN)C(=O)N[C@@H](CCCCN)C(=O)N[C@H](C(=O)N[C@@H](CCSC)C(=O)N[C@@H](CCSC)C(N)=O)[C@@H](C)O (H-GMMKRIKTMM-NH2),–,–,–,–,–,> 500 µM
100 µM,CC[C@H](C)[C@H](NC(=O)[C@H](CCCNC(=N)N)NC(=O)[C@H](CCCN)NC(=O)[C@H](CC(C)C)NC(=O)[C@H](CC(C)C)NC(=O)CN)C(=O)N[C@@H](CCCCN)C(=O)N[C@H](C(=O)N[C@@H](CC(C)C)C(=O)N[C@@H](CC(C)C)C(N)=O)[C@@H](C)O (H-GLL[Orn]RIKTLL-NH2),–,–,–,–,–,> 500 µM
100 µM,CCC[C@H](NC(=O)[C@H](CC(C)C)NC(=O)CN)C(=O)N[C@@H](CCCCN)C(=O)N[C@@H](CCCNC(=N)N)C(=O)N[C@@H](Cc1ccc2ccccc2c1)C(=O)N[C@@H](CCCCN)C(=O)N[C@H](C(=O)N[C@@H](CCC)C(=O)N[C@@H](CC(C)C)C(N)=O)[C@@H](C)O (H-GL[Nva]KR[2Nal]KT[Nva]L-NH2),–,–,–,–,–,> 500 µM
100 µM,CC[C@H](C)[C@H](NC(=O)[C@H](CCCNC(=N)N)NC(=O)[C@H](CCCCN)NC(=O)[C@H](CC(C)C)NC(=O)[C@H](CC(C)C)NC(=O)CN)C(=O)N[C@@H](CCCCN)C(=O)N[C@@H](CO)C(=O)N[C@@H](CC(C)C)C(=O)N[C@@H](CC(C)C)C(N)=O (H-GLLKRIKSLL-NH2),–,–,–,–,–,> 500 µM
100 µM,CCCC[C@H](NC(=O)[C@H](CC(C)C)NC(=O)[C@@H](NC(=O)[C@H](CCCCN)NC(=O)[C@@H](NC(=O)[C@H](CCCNC(=N)N)NC(=O)[C@H](CCCCN)NC(=O)[C@H](CC(C)C)NC(=O)[C@H](CCCC)NC(=O)CN)[C@@H](C)CC)[C@@H](C)O)C(N)=O (H-G[Nle]LKRIKTL[Nle]-NH2),–,–,–,–,–,> 500 µM
12.5 µM,CC[C@H](C)[C@H](NC(=O)[C@H](CCCNC(=N)N)NC(=O)[C@H](CCCCN)NC(=O)[C@H](COC)NC(=O)[C@H](COC)NC(=O)CN)C(=O)N[C@@H](CCCCN)C(=O)N[C@H](C(=O)N[C@@H](COC)C(=O)N[C@@H](COC)C(N)=O)[C@@H](C)O (H-GS(Me)S(Me)KRIKTS(Me)S(Me)-NH2),–,–,–,–,–,> 500 µM
12.5 µM,CC[C@H](C)[C@H](NC(=O)[C@H](CCCNC(=N)N)NC(=O)[C@H](CCCCN)NC(=O)[C@H](CC(C)C)NC(=O)[C@H](CCC(C)C)NC(=O)CN)C(=O)N[C@@H](CCCCN)C(=O)N[C@H](C(=O)N[C@@H](CC(C)C)C(=O)N[C@@H](CCC(C)C)C(N)=O)[C@@H](C)O (H-G[hLeu]LKRIKTL[hLeu]-NH2),–,–,–,–,–,380 µM
